For 4 compounds, TGI results are on record in PubChem BioAssay (NCI).

Common to all, as to assay: NCI tumour cell line growth inhibition, 48 h
Experiment [1] concerns CAKI-1 renal.
The test system of experiment [2] is KM12 colon.
In experiment [3] the test system is M14 melanoma.
In experiment [4] the test system is OVCAR-5 ovarian.
The subject of experiment [5] is SF-539 CNS.
In experiment [6] the test system is SK-MEL-2 melanoma.
Experiment [7] concerns SK-MEL-28 melanoma.
For experiment [8], the system named is SK-MEL-5 melanoma.
Experiment [9] has as its system SNB-75 CNS.
In experiment [10] the test system is U251 CNS.

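Cultured in 96-well plates, cells were exposed to test compound for 48 hours across five concentrations. Definition used: TGI = concentration required for complete inhibition of growth.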

Take `COc1ccc2nc3c([N+](=O)[O-])ccc4c3c(c2c1)N=CN4CCN(C)C`: the TGI worked out at 5.71 µM in experiment [1]; 15.6 µM in experiment [2]; 18.7 µM in experiment [3]; 23.3 µM in [4]; 15.8 µM in experiment [5]; 31.6 µM in [6]. Besides, the TGI in experiment [7] came out at 39.5 µM; in [8], 7.81 µM; in experiment [9], 12.1 µM; in [10] it was 24.5 µM.

With `COc1cc2c(c(OC)c1)C(=O)C(=O)C(CC1(C)OCCCO1)=C2`, the TGI in experiment [1] worked out at 13.1 µM; in [2], 29.7 µM; in experiment [3] it was 24.3 µM; in experiment [4] it was 37.7 µM; in [5], 32 µM; in [6], 30.3 µM. The TGI in experiment [7] turned out to be 28.6 µM; in experiment [8] it was 18.1 µM; in experiment [9], 33.9 µM; in [10], 28.7 µM.

On to `N#CCCN(c1ccc(C=Nc2ccc(C(=O)O)cc2)cc1)S(=O)(=O)c1ccccc1`, for which the TGI in experiment [1], in experiment [2], in experiment [3], in experiment [4], in experiment [5] and in experiment [6] was greater than 100 µM in each case. The TGI in [7], in experiment [8], in [9] and in [10] was greater than 100 µM throughout.

As to `Nc1n[nH]c(N)n1`, the TGI was 8860 µM in experiment [1]; greater than 10000 µM in [2]; greater than 10000 µM in experiment [3]; greater than 9810 µM in [4]; 8860 µM in experiment [5]; greater than 10000 µM in experiment [6]. The TGI in experiment [7], in experiment [8], in experiment [9] and in experiment [10] was greater than 10000 µM in each case.
